Source: ChEMBL document CHEMBL4251700, “Novel Staphyloxanthin Inhibitors with Improved Potency against Multidrug Resistant Staphylococcus aureus” (ACS Med Chem Lett, 2018)
Numbering of substitutions follows the chain as printed. Activity calls are given as the source filed them. No cut-off for these calls is given here.

Key:
[1] = molecular target: T1, 4,4'-diapophytoene desaturase (4,4'-diaponeurosporene-forming) (Staphylococcus aureus (strain Newman)) (UniProt O07855); experiment: Inhibition of CrtN in Staphylococcus aureus Newman assessed as H2O2-induced bacterial death by measuring reduction in bacterial survival at 1 uM pretreated for 24 hrs followed by H2O2 addition measured after 30 mins by serial dilution method; conditions: Staphylococcus aureus subsp. aureus str. Newman
T1 sequence (whole entry): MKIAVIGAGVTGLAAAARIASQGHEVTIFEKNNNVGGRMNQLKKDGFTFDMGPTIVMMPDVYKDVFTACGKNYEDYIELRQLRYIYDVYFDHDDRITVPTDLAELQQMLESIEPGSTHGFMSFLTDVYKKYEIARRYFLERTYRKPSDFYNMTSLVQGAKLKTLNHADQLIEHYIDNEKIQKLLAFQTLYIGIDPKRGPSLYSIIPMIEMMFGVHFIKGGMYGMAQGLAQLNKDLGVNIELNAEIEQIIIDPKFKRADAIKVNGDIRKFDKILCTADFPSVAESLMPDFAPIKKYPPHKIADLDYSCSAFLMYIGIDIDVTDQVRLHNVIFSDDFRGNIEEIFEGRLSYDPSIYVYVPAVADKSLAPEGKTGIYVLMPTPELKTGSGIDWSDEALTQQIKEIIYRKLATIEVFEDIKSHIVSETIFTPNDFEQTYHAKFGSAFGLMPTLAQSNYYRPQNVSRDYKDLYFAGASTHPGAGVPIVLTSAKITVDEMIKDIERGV

[2] = molecular target: T2, 4,4'-diapophytoene desaturase (4,4'-diaponeurosporene-forming) (Staphylococcus aureus (strain MW2), UniProt Q8NUQ6); experiment: Inhibition of CrtN in methicillin-resistant Staphylococcus aureus LAC USA300 assessed as reduction in staphyloxanthin levels after 48 hrs by spectrophotometric method-based pigment inhibition assay; parameters: species or system Staphylococcus aureus subsp. aureus USA300
T2 sequence (Q8NUQ6 whole entry): T1 sequence (whole entry) with R500Q

[3] = system: Staphylococcus aureus; experiment: Antibacterial activity against vancomycin-intermediate Staphylococcus aureus Mu50 infected in BALB/c mouse assessed as reduction of bacterial burden in liver at 0.1 mg, ip bid for 3.5 days administered 6 hrs post bacterial infection measured 84 hrs post infection; format: functional, organism-based
[4] = system: Staphylococcus aureus; experiment: Antibacterial activity against linezolid-resistant Staphylococcus aureus NRS271 infected in BALB/c mouse assessed as reduction of bacterial burden in liver at 0.4 mg, ip bid administered at 12 hrs prior to bacterial infection dosed at 12 intervals for 4.5 days; format: functional, organism-based
[5] = Solubility of the compound in water at 10 mg measured after 24 hrs by HPLC method; format: physicochemical
[6] = system: Staphylococcus aureus; experiment: Antibacterial activity against vancomycin-intermediate Staphylococcus aureus Mu50 infected in BALB/c mouse assessed as reduction of bacterial burden in heart at 0.1 mg, ip bid for 3.5 days administered 6 hrs post bacterial infection measured 84 hrs post infection relative to control; format: functional; parameters: scale not given: the % may be the effect or the level left
[7] = system: Staphylococcus aureus; experiment: Antibacterial activity against linezolid-resistant Staphylococcus aureus NRS271 infected in BALB/c mouse assessed as log reduction of colony forming units in liver at 0.4 mg, ip bid for 3.5 days administered 6 hrs post bacterial infection measured 84 hrs post infection; format: functional
[8] = system: Trichophyton verrucosum; experiment: Antifungal activity against Trichophyton verrucosum after 7 days; format: functional, organism-based
[9] = molecular target: Voltage-gated inwardly rectifying potassium channel KCNH2 (Homo sapiens, UniProt Q12809); experiment: Inhibition of recombinant human ERG expressed in CHO cells at -80 mV holding potential measured after 3 minutes by automated whole cell patch clamp Qpatch method; format: cell-based
Sequence of Voltage-gated inwardly rectifying potassium channel KCNH2 (Q12809 whole entry): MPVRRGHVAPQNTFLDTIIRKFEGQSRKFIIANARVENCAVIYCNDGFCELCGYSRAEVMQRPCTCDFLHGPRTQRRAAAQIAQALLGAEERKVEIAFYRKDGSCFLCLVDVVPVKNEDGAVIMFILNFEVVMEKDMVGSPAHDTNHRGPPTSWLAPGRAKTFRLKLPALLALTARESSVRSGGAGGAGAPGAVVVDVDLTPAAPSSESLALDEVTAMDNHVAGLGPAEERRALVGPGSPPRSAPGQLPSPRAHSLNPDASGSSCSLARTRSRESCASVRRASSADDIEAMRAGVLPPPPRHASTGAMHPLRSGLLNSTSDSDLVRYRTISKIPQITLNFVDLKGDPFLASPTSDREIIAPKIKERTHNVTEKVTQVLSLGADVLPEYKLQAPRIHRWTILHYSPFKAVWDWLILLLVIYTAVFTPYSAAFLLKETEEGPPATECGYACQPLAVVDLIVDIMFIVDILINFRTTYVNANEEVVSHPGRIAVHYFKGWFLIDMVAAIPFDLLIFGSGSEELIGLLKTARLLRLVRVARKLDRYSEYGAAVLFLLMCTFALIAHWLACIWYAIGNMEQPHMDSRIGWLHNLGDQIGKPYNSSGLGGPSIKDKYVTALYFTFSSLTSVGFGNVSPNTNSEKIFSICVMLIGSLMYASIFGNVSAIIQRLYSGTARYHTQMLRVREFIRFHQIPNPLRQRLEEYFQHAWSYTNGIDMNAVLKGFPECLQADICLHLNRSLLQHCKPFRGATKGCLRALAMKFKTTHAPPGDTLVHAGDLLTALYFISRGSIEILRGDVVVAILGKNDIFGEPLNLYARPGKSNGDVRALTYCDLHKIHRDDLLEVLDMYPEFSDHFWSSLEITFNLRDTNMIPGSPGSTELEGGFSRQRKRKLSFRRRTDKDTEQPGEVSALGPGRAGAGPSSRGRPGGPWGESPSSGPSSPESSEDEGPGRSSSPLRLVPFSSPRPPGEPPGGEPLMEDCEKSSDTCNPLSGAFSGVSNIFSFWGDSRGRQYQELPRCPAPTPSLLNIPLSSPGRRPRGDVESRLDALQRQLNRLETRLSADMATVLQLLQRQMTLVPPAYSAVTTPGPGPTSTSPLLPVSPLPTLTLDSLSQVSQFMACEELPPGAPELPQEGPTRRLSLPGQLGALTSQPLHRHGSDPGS

[10] = molecular target: T3, 4,4'-diapophytoene desaturase (4,4'-diaponeurosporene-forming) (Staphylococcus aureus (strain Mu50 / ATCC 700699), UniProt Q99R76); experiment: Inhibition of CrtN in vancomycin-intermediate Staphylococcus aureus Mu50 assessed as reduction in staphyloxanthin levels after 48 hrs by spectrophotometric method-based pigment inhibition assay; parameters: species or system Staphylococcus aureus subsp. aureus Mu50
T3 sequence (Q99R76 whole entry): T1 sequence (whole entry)

[11] = system: Staphylococcus aureus; experiment: Antibacterial activity against linezolid-resistant Staphylococcus aureus NRS271 infected in BALB/c mouse assessed as reduction of bacterial burden in heart at 0.4 mg, ip bid for 3.5 days administered 6 hrs post bacterial infection measured 84 hrs post infection; format: functional; parameters: scale not given: the % may be the effect or the level left
[12] = system: Staphylococcus aureus; experiment: Antibacterial activity against Staphylococcus aureus Newman infected in BALB/c mouse assessed as reduction of bacterial burden in liver at 0.4 mg, ip bid administered at 12 hrs prior to bacterial infection dosed at 12 intervals for 4.5 days relative to control; format: functional; parameters: scale not given: the % may be the effect or the level left
[13] = molecular target: T2, 4,4'-diapophytoene desaturase (4,4'-diaponeurosporene-forming); experiment: Inhibition of CrtN in methicillin-resistant Staphylococcus aureus USA400 MW2 assessed as reduction in staphyloxanthin levels after 48 hrs by spectrophotometric method-based pigment inhibition assay; parameters: species or system Staphylococcus aureus subsp. aureus MW2
[14] = system: Nannizzia gypsea; experiment: Antifungal activity against Microsporum gypseum after 7 days by broth microdilution method; format: functional, organism-based
[15] = system: Staphylococcus aureus; experiment: Antibacterial activity against vancomycin-intermediate Staphylococcus aureus Mu50 infected in BALB/c mouse assessed as reduction of bacterial burden in liver at 0.4 mg, ip bid for 3.5 days administered 6 hrs post bacterial infection measured 84 hrs post infection; format: functional, organism-based
[16] = system: Staphylococcus aureus; experiment: Antibacterial activity against linezolid-resistant Staphylococcus aureus NRS271 infected in BALB/c mouse assessed as reduction of bacterial burden in heart at 0.1 mg, ip bid for 3.5 days administered 6 hrs post bacterial infection measured 84 hrs post infection; format: functional; parameters: scale not given: the % may be the effect or the level left
[17] = molecular target: T4, 4,4'-diapophytoene desaturase (4,4'-diaponeurosporene-forming) (Staphylococcus aureus (strain Mu50 / ATCC 700699)) (UniProt Q99R76); experiment: Inhibition of CrtN in Staphylococcus aureus Mu50 assessed as H2O2-induced bacterial death by measuring reduction in bacterial survival at 1 uM preincubated for 24 hrs followed by H2O2 addition measured after 30 mins by serial dilution method; conditions: Staphylococcus aureus subsp. aureus Mu50
T4 sequence (whole entry): T1 sequence (whole entry)

[18] = system: Staphylococcus aureus; experiment: Antibacterial activity against linezolid-resistant Staphylococcus aureus NRS271 infected in BALB/c mouse assessed as log reduction of colony forming units in liver at 0.1 mg, ip bid for 3.5 days administered 6 hrs post bacterial infection measured 84 hrs post infection; format: functional
[19] = system: Staphylococcus aureus; experiment: Antibacterial activity against vancomycin-intermediate Staphylococcus aureus Mu50 infected in BALB/c mouse assessed as reduction of bacterial burden in liver at 0.4 mg, ip bid administered at 12 hrs prior to bacterial infection dosed at 12 intervals for 4.5 days; format: functional, organism-based
[20] = Cytotoxicity against HEK293T cells after 72 hrs by CCK8 assay; format: cell-based, HEK-293T; conditions: human

Structure (SMILES): CN(C/C=C/C=C/c1ccc(C(F)(F)F)cc1)Cc1ccc2c(c1)OCCO2.Cl
- inhibition [1]: Active
- IC50 [2]: 5.5 nM
- Activity [3]: Active
- Activity [4]: Active
- solubility at 24 h [5]: 7900 µg/mL
- Activity [6]: 99%
- Activity [7]: <=0.75 log10CFU
- Activity [8]: inactive
- IC50 [9]: 12100 nM
- IC50 [10]: < 0.1 nM
- Activity [11]: >90%
- Activity [12]: 86.7%
- IC50 [13]: 6.5 nM
- Activity [14]: inactive
- Activity [15]: Active
- Activity [16]: >90%
- inhibition [17]: Active
- Activity [18]: <=0.75 log10CFU
- Activity [19]: Active
- CC50 at 72 h [20]: 50300 nM
